Laboratory results as given in PubChem BioAssay AID318 (DTP/NCI, 2004).
“And” between values parts separate entries of the source, which are not always exact repeats. Identical values can stand only once. Inconclusive results and toxic doses are left out.

Test system: BDF1 mice, P815 leukemia ip, survival T/C
Experiment: NCI In Vivo Anticancer Drug Screen. Data for tumor model P815 Mast Cell Leukemia (Ascitic) (intraperitoneal) in B6D2F1 (BDF1) mice
Details: higher = longer survival
Procedure: The antitumor activity of compounds was measured in mice bearing transplantable tumors. Survival or tumor size were measured and the results are expressed as the measurement made in the treated group (T) divided by the measurement made in the vehicle treated control group (C). The tumor model used in this assay is P815 Mast Cell Leukemia (Ascitic) (intraperitoneal) in B6D2F1 (BDF1) mice

[1] = endpoint: survival time, mean or median, dose: 25.0 mg/kg/injection, schedule: Q01DX010 (ip), vehicle: saline
[2] = endpoint: survival time, mean or median, dose: 40.0 mg/kg/injection, schedule: Q01DX010 (ip), vehicle: saline
[3] = endpoint: survival time, mean or median, dose: 8.0 mg/kg/injection, schedule: Q01DX010 (ip), vehicle: saline
[4] = endpoint: survival time, mean or median, dose: 3.13 mg/kg/injection, schedule: Q01DX010 (ip), vehicle: saline
[5] = endpoint: survival time, mean or median, dose: 6.25 mg/kg/injection, schedule: Q01DX010 (ip), vehicle: saline
[6] = endpoint: survival time, mean or median, dose: 12.5 mg/kg/injection, schedule: Q01DX010 (ip), vehicle: saline

In the case of Cc1nc(CON)cs1, the T/C (endpoint: median survival time, dose: 50.0 mg/kg/injection, schedule: Q01DX015 (ip), vehicle: saline) is reported as 90 % of control and the T/C (endpoint: median survival time, dose: 100.0 mg/kg/injection, schedule: Q01DX015 (ip), vehicle: saline) is reported as 94 % of control.

With CCN(CC)CCNc1ccc(C)c2sc3ccccc3c(=O)c12 the T/C [1] was 107 % of control and 113 % of control and the T/C (endpoint: survival time, mean or median, dose: 50.0 mg/kg/injection, schedule: Q01DX010 (ip), vehicle: saline) was 118 % of control and 123 % of control.

With O=C(Nc1ccc(C2=NCCN2)cc1)Nc1cccc(NC(=O)Nc2ccc(C3=NCCN3)cc2)c1 the T/C (endpoint: survival time, mean or median, dose: 120.0 mg/kg/injection, schedule: Q01DX010 (ip), vehicle: saline) was 258 % of control and 276 % of control and the T/C (endpoint: survival time, mean or median, dose: 240.0 mg/kg/injection, schedule: Q01DX010 (ip), vehicle: saline) was 88 % of control and 92 % of control.

In the case of Oc1ccccc1C(Nc1nc2ccccc2s1)c1ccc2cccnc2c1O (centres undefined), the T/C (endpoint: survival time, mean or median, dose: 62.5 mg/kg/injection, schedule: Q01DX015 (ip), vehicle: other) is reported as 90 % of control, the T/C (endpoint: survival time, mean or median, dose: 125.0 mg/kg/injection, schedule: Q01DX015 (ip), vehicle: other) is reported as 120 % of control and the T/C (endpoint: survival time, mean or median, dose: 250.0 mg/kg/injection, schedule: Q01DX015 (ip), vehicle: other) is reported as 98 % of control.

In the case of CCOC(=O)c1[nH]c2ccccc2c1CN(CCCl)CCCl, the T/C (endpoint: survival time, mean or median, dose: 10.0 mg/kg/injection, schedule: Q01DX010 (ip), vehicle: saline) is reported as 105 % of control, the T/C (endpoint: survival time, mean or median, dose: 20.0 mg/kg/injection, schedule: Q01DX010 (ip), vehicle: saline) is reported as 115 % of control and the T/C [2] is reported as 115 % of control.

With COc1cc(-c2ccc(Nc3ccccc3C(=O)O)c(OC)c2)ccc1Nc1ccccc1C(=O)O the T/C (endpoint: survival time, mean or median, dose: 45.0 mg/kg/injection, schedule: Q01DX010 (ip), vehicle: saline) was 108 % of control and the T/C (endpoint: survival time, mean or median, dose: 67.0 mg/kg/injection, schedule: Q01DX010 (ip), vehicle: saline) was 120 % of control.

COc1ccc2c(c1OC)C(=O)O[C@@H]2[C@H]1c2c(cc3c(c2OC)OCO3)CCN1C was tested, and the T/C (endpoint: survival time, mean or median, dose: 62.5 mg/kg/injection, schedule: Q01DX015 (ip), vehicle: carboxymethylcellulose (CMC)) was 101 % of control, the T/C (endpoint: survival time, mean or median, dose: 125.0 mg/kg/injection, schedule: Q01DX015 (ip), vehicle: carboxymethylcellulose (CMC)) was 95 % of control and the T/C (endpoint: survival time, mean or median, dose: 250.0 mg/kg/injection, schedule: Q01DX015 (ip), vehicle: carboxymethylcellulose (CMC)) was 96 % of control. The T/C (endpoint: survival time, mean or median, dose: 500.0 mg/kg/injection, schedule: Q01DX015 (ip), vehicle: carboxymethylcellulose (CMC)) was 93 % of control.

In the case of COc1cc([C@@H]2c3cc4c(cc3[C@H](O)[C@H]3COC(=O)[C@@H]23)OCO4)cc(OC)c1OC, the T/C (endpoint: survival time, mean or median, dose: 10.0 mg/kg/injection, schedule: Q01DX015 (ip), vehicle: carboxymethylcellulose (CMC)) is reported as 112 % of control, the T/C (endpoint: survival time, mean or median, dose: 20.0 mg/kg/injection, schedule: Q01DX015 (ip), vehicle: carboxymethylcellulose (CMC)) is reported as 150 % of control and the T/C (endpoint: survival time, mean or median, dose: 40.0 mg/kg/injection, schedule: Q01DX015 (ip), vehicle: carboxymethylcellulose (CMC)) is reported as 167 % of control.

In the case of O=C(Nc1ccc(C2=NCCN2)cc1)c1ccc(C(=O)Nc2ccc(C3=NCCN3)cc2)c([N+](=O)[O-])c1, the T/C (endpoint: survival time, mean or median, dose: 6.0 mg/kg/injection, schedule: Q01DX010 (ip), vehicle: saline) is reported as 171 % of control, the T/C [3] is reported as 284 % of control and the T/C (endpoint: survival time, mean or median, dose: 12.0 mg/kg/injection, schedule: Q01DX010 (ip), vehicle: saline) is reported as 92 % of control.

C[C@H]1C(=O)O[C@@H]2CCN3CC=C(COC(=O)[C@](C)(O)[C@@]1(C)O)[C@H]23 was tested, and the T/C [4] was 94 % of control and 100 % of control, the T/C [5] was 100 % of control and 105 % of control and the T/C [6] was 88 % of control and 94 % of control. For the same compound, the T/C [1] was 100 % of control.

With CCCNc1ncnc2[nH]ncc12 the T/C [4] was 95 % of control and 104 % of control, the T/C [5] was 100 % of control and 116 % of control and the T/C [6] was 95 % of control and 100 % of control. For the same compound, the T/C [1] was 95 % of control.

In the case of O=NN(CCCl)C(=O)NCCCl, the T/C [5] is reported as 245 % of control and 263 % of control and the T/C [6] is reported as 159 % of control.

S=P(N1CCOCC1)(N1CC1)N1CC1 was tested, and the T/C (endpoint: survival time, mean or median, dose: 2.5 mg/kg/injection, schedule: Q01DX010 (ip), vehicle: saline) was 97 % of control and 100 % of control and the T/C [2] was 100 % of control.

With C=CC(CN1CC1)OC(C)=O (centres undefined) the T/C (endpoint: survival time, mean or median, dose: 2.0 mg/kg/injection, schedule: Q01DX010 (ip), vehicle: saline) was 94 % of control, the T/C (endpoint: survival time, mean or median, dose: 4.0 mg/kg/injection, schedule: Q01DX010 (ip), vehicle: saline) was 100 % of control and the T/C [3] was 100 % of control.
